Assay results reported in patent US10315992B2, “Tetracyline compounds” (Tetraphase Pharmaceuticals, Inc., priority 2012, dated 2019).
Where two headings read alike, the source gives them in different places.

Tests used:
EC 880 ipxC = experiment: MIC assay, EC880; assay type: cell-based
Source text: Minimum Inhibitory Concentration (MIC) Assay
The assays were run as follows.

[1] = tested on: Pseudomonas aeruginosa PA669 (2009 tracheal aspirate isolate); experiment: MIC assay, PA669; assay type: cell-based
[2] = tested on: Streptococcus pneumoniae SP160 (tet(M)); experiment: MIC assay, SP160; assay type: cell-based
[3] = tested on: Escherichia coli EC155 (tet(A)); experiment: MIC assay, EC155; assay type: cell-based; conditions: Escherichia coli, read-out: MIC EC 155 tetA
[4] = tested on: Enterococcus faecium EF404 (blood isolate, tet(M)); experiment: MIC assay, EF404; assay type: cell-based
[5] = tested on: Enterococcus faecalis EF159 (tet(M)); experiment: MIC assay, EF159; assay type: cell-based
[6] = tested on: Moraxella catarrhalis MC205 (ATCC 8176); experiment: MIC assay, MC205; assay type: cell-based; conditions: ATCC8176, read-out: MIC MC 205 8176
[7] = tested on: Streptococcus pyogenes SP312 (2009 clinical isolate, tet(M)); experiment: MIC assay, SP312; assay type: cell-based
[8] = tested on: Escherichia coli EC107 (ATCC 25922); experiment: MIC assay, EC107; assay type: cell-based
[9] = tested on: Staphylococcus aureus SA191 (HA-MRSA, tetracycline-resistant); experiment: MIC assay, SA191; assay type: cell-based; conditions: MRSA, read-out: MIC SA 191
[10] = tested on: Enterococcus faecalis EF327 (wound isolate, tet(M)); experiment: MIC assay, EF327; assay type: cell-based
[11] = tested on: Proteus mirabilis PM112 (ATCC 35659); experiment: MIC assay, PM112; assay type: cell-based; conditions: ATCC35659, read-out: MIC PM 112 35659
[12] = tested on: Acinetobacter baumannii AB110 (ATCC 19606); experiment: MIC assay, AB110; assay type: cell-based; conditions: ATCC19606, read-out: MIC AB 110 19606
[13] = tested on: Pseudomonas aeruginosa PA1145 (strain used in murine pneumonia model); experiment: MIC assay, PA1145; assay type: cell-based
[14] = tested on: Staphylococcus aureus SA161 (HA-MRSA, tet(M)); experiment: MIC assay, SA161; assay type: cell-based; conditions: Staphylococcus aureus, MRSA
[15] = tested on: Enterobacter cloacae EC603 (urine isolate); experiment: MIC assay, EC603; assay type: cell-based
[16] = tested on: Enterococcus faecalis EF103 (ATCC 29212); experiment: MIC assay, EF103; assay type: cell-based; conditions: ATCC29212, read-out: MIC EF 103 29212
KP 194 7E+05 = experiment: MIC assay, KP194; conditions: Table 5
Procedure: (§1) MICs were determined according to the Clinical and Laboratory Standards Institute (CLSI) guidances (e.g., CLSI. Performance standards for antimicrobial susceptibility testing; nineteenth information supplement. CLSI document M100-S19, CLSI, 940 West Valley Road, Suite 1400, Wayne, Pa. 19087-1898, USA, 2009). Briefly, frozen bacterial strains were thawed and subcultured onto Mueller Hinton Broth (MHB) or other appropriate media (Streptococcus requires blood and Haemophilus requires hemin and NAD). Following incubation overnight, the strains were subcultured onto Mueller Hinton Agar and again incubated overnight. […] Isolated colonies were selected to prepare a starting inoculum equivalent to a 0.5 McFarland standard. […] Test compounds were prepared by dilution in sterile water to a final concentration of 5.128 mg/mL. Antibiotics (stored frozen, thawed and used within 3 hours of thawing) and compounds were further diluted to the desired working concentrations.
(§2) The assays were run as follows. Fifty μL of MHB was added to wells 2-12 of a 96-well plate. One hundred μL of appropriately diluted antibiotics was added to well 1. Fifty μL of antibiotics was removed from well 1 and added to well 2 and the contents of well 2 mixed by pipetting up and down five times. Fifty μL of the mixture in well 2 was removed and added to well 3 and mixed as above. Serial dilutions were continued in the same manner through well 12. Fifty μL was removed from well 12 so that all contained 50 μL. Fifty μL of the working inoculum was then added to all test wells. A growth control well was prepared by adding 50 μL of working inoculum and 50 μL of MHB to an empty well. The plates were then incubated at 37° C. overnight, removed from the incubator and each well was read on a plate reading mirror. The lowest concentration (MIC) of test compound that inhibited the growth of the bacteria was recorded.

PA 884 35151 = experiment: MIC assay, PA884; conditions: Pseudomonas aeruginosa, read-out: MIC PA 884 351 51
Procedure: as §1, §2

[17] = tested on: Klebsiella pneumoniae KP153 (tet(A), MDR, ESBL+); conditions: K. pneumoniae tet(A), MDR, ESBL+
[18] = tested on: Acinetobacter baumannii AB250 (cystic fibrosis isolate, MDR); experiment: MIC assay, AB250; assay type: cell-based
[19] = tested on: Haemophilus influenzae HI262 (tetracycline-resistant, ampicillin-resistant); experiment: MIC assay, HI262; assay type: cell-based; conditions: read-out: MIC HI 262 33929
[20] = tested on: Pseudomonas aeruginosa PA555 (ATCC BAA-47, PAO1); experiment: MIC assay, PA555; assay type: cell-based
[21] = tested on: Staphylococcus aureus SA158 (tetracycline-resistant tet(K)); experiment: MIC assay, SA158; assay type: cell-based
[22] = tested on: Enterobacter cloacae EC108 (ATCC 13047); experiment: MIC assay, EC108; assay type: cell-based; conditions: ATCC13047, read-out: MIC ECI 108 13047
[23] = Table 7, read-out: MIC EC 880 ipxC
[24] = read-out: MIC SP 160 tet M, S. pneumoniae tet(M), Table 6
[25] = read-out: MIC SP 160 tetM, S. pneumoniae tet(M), Table 4
[26] = read-out: MIC SP 160 tetM, S. pneumoniae tet(M), Table 5
[27] = read-out: MIC SP 160 tetM, S. pneumoniae tet(M), Table 7
[28] = read-out: MIC SP 160 tetM, control compounds
[29] = read-out: MIC SP 160 tetM, control compounds, numeric
[30] = read-out: MIC EF 159 tetM, E. faecalis tet(M), Table 4
[31] = read-out: MIC EF 159 tetM, E. faecalis tet(M), Table 5
[32] = ATCC25922, read-out: MIC EC 07 25922, E. coli ATCC 25922, Table 7
[33] = ATCC25922, read-out: MIC EC 107 259 22, E. coli ATCC 25922, Table 6
[34] = ATCC25922, read-out: MIC EC 107 25922, E. coli ATCC 25922, Table 4
[35] = ATCC25922, read-out: MIC EC 107 25922, E. coli ATCC 25922, Table 5
[36] = ATCC25922, read-out: MIC EC 107 25922, control compounds
[37] = ATCC25922, read-out: MIC EC 107 25922, control compounds, numeric
[38] = read-out: MIC SA 158 tetK, S. aureus tet(K), Table 4
[39] = read-out: MIC SA 158 tetK, S. aureus tet(K), Table 5
[40] = read-out: MIC SA 158 tetK, S. aureus tet(K), Table 6
[41] = read-out: MIC SA 158 tetK, S. aureus tet(K), Table 7
[42] = read-out: MIC SA 158 tetK, control compounds
[43] = read-out: MIC SA 158 tetK, control compounds, numeric

CN(C)[C@@H]1C(O)=C(C(N)=O)C(=O)[C@@]2(O)C(O)=C3C(=O)c4c(O)cccc4C[C@H]3C[C@@H]12 [Sancycline, sancycline]
33 µg/mL: MIC [1] | MIC ([1]; read-out: MIC PA 669) | MIC [13]
16 µg/mL: MIC [18] | MIC ([18]; read-out: MIC AB 250)
2 µg/mL: MIC ([14]; read-out: MIC SA 161 MRSAtetM) | MIC ([14]; read-out: MIC SA 161 tet M) | MIC ([14]; read-out: MIC SA 161 tetM)
8 µg/mL: MIC [2, 24] | MIC [2, 25] | MIC [2, 26] | MIC [2, 27] | MIC [2, 28] | MIC [2, 29] | MIC [5, 30] | MIC [5, 31] | MIC [8, 32] | MIC [8, 33] | MIC [8, 34] | MIC [8, 35] | MIC [8, 36] | MIC [8, 37] | MIC [9] | MIC [16] | MIC [22]
32 µg/mL: MIC [3] | MIC ([13]; read-out: MIC PA 1145) | MIC [15] | MIC ([15]; read-out: MIC EC 603 tetA) | MIC KP 153 tetA ([17]; Table 4) | MIC KP 153 tetA ([17]; Table 5) | MIC [20] | MIC ([20]; read-out: MIC PA5 55 BAA- 47) | MIC ([20]; read-out: MIC PA 555) | MIC ([20]; read-out: MIC PA 555 BAA- 47) | MIC ([20]; read-out: MIC PA 555 BAA-47)
0.13 µg/mL: MIC [6]
0.25 µg/mL: MIC (EC 880 ipxC; [23]) | MIC [12]
0.2 µg/mL: MIC (EC 880 ipxC; read-out: MIC EC 880 ipx C)
0.5 µg/mL: MIC [19]
4 µg/mL: MIC ([4]; read-out: MIC EF 404 tet M) | MIC ([4]; read-out: MIC EF 404 tetM) | MIC ([7]; read-out: MIC SP 312) | MIC ([7]; read-out: MIC SP 312 tet M) | MIC ([10]; read-out: MIC EF 327 tet M) | MIC ([10]; read-out: MIC EF 327 tetM) | MIC [11] | MIC (PA 884 35151) | MIC [21, 38] | MIC [21, 39] | MIC [21, 40] | MIC [21, 41] | MIC [21, 42] | MIC [21, 43]
32 μg/mL: MIC KP 194 7E+05 (KP 194 7E+05)

CN(C)c1cc(NC(=O)CNC(C)(C)C)c(O)c2c1C[C@H]1C[C@H]3[C@H](N(C)C)C(O)=C(C(N)=O)C(=O)[C@@]3(O)C(O)=C1C2=O [Tigecycline, tigecycline]
0.25 µg/mL: MIC [12] | MIC [22]
0.5 µg/mL: MIC [3] | MIC [9]
33 µg/mL: MIC [13]
0.063 µg/mL: MIC [5, 30] | MIC ([10]; read-out: MIC EF 327 tet M) | MIC (PA 884 35151) | MIC [21, 38] | MIC [21, 40]
16 µg/mL: MIC ([13]; read-out: MIC PA 1145) | MIC ([13]; read-out: MIC PA 1145 Vivi- source) | MIC [20] | MIC ([20]; read-out: MIC PA5 55 BAA- 47) | MIC ([20]; read-out: MIC PA 555) | MIC ([20]; read-out: MIC PA 555 BAA- 47) | MIC ([20]; read-out: MIC PA 555 BAA-47)
0.016 µg/mL: MIC [2, 25]
0.06 µg/mL: MIC [5, 31] | MIC ([10]; read-out: MIC EF 327 tetM) | MIC [21, 39] | MIC [21, 41] | MIC [21, 42] | MIC [21, 43]
0.125 µg/mL: MIC ([14]; read-out: MIC SA 161 MRSAtetM) | MIC ([14]; read-out: MIC SA 161 tet M)
1 µg/mL: MIC [11] | MIC KP 153 tetA ([17]; Table 4) | MIC KP 153 tetA ([17]; Table 5) | MIC [19]
0.031 µg/mL: MIC ([4]; read-out: MIC EF 404 tet M) | MIC [8, 34] | MIC [16]
0.13 µg/mL: MIC ([14]; read-out: MIC SA 161 tetM)
8 µg/mL: MIC [18] | MIC ([18]; read-out: MIC AB 250)
32 µg/mL: MIC [1] | MIC ([1]; read-out: MIC PA 669)
0.03 µg/mL: MIC ([4]; read-out: MIC EF 404 tetM) | MIC [8, 32] | MIC [8, 33] | MIC [8, 35] | MIC [8, 36] | MIC [8, 37]
0.02 µg/mL: MIC (EC 880 ipxC; [23]) | MIC [2, 26] | MIC [2, 27] | MIC [2, 28] | MIC [2, 29] | MIC [6] | MIC ([7]; read-out: MIC SP 312)
0.015 µg/mL: MIC (EC 880 ipxC; Table 6, read-out: MIC EC 880 ipx C) | MIC [2, 24] | MIC ([7]; read-out: MIC SP 312 tet M)
2 µg/mL: MIC [15] | MIC ([15]; read-out: MIC EC 603 tetA)
8 μg/mL: MIC KP 194 7E+05 (KP 194 7E+05)
